# Assay: Activity toward hydrogen peroxide
# Assay type: biochemical
compound,measurement,value
[Cl][Mn-5]1234([Cl])[n+]5c6cccc5C[NH+]1[C@H]1CCCC[C@@H]1[NH+]2CC[NH+]3[C@H]1CCCC[C@@H]1[NH+]4C6 (stereo partly shown) [GC4419],activity toward hydrogen peroxide,no detectable activity
